Here are results for 5 compounds from patent US20080027025A1 (The Regents of the University of California, priority 2004, published 2008).

One test concerns N2a cells. Format: cell-based, Murine.
The subject of the next test is N2aPK1 cells. Format: cell-based, murine.
For a further test, the system named is cells. The settings on record: cited from earlier work.
The subject of test [1] is Reporter T cells containing an integrated loxP-STOP-loxP GFP expression gene. It counts as cell-based.

Regarding `C[C@@H]1[C@H](O)[C@@H](C)/C=C/C=C/CC/C=C/C=C/C=C/C=C/C(O[C@H]2O[C@H](C)[C@@H](O)[C@H](N)[C@@H]2O)CC2O[C@](O)(CC(O)C(O)CCC(O)CC(O)CC(O)CC(=O)O[C@H]1C)CC(O)C2C(=O)O` (stereo partly shown) [nystatin], in the test with N2a cells, the “internalization of rPrP^C-Alexa546” value is on record as “prevented”.

With `CCN(c1nc(N)c(C(=O)NC(=N)N)nc1Cl)C(C)C` [EIPA], in the test with N2a cells, the “cell surface association of rPrP^C-546” value is “did not block” and the “cellular uptake of rPrP^C-546” value is “prevented the cellular uptake”. Moreover, the “PrP^C to PrP^Sc conversion (proteinase K resistant PrP)” value in the test with N2aPK1 cells was “concentration-dependent inhibition”.

Regarding `C=C1[C@@H](C)[C@H]2[C@H](Cc3ccccc3)NC(=O)[C@]23[C@H](OC(C)=O)/C=C/[C@@](C)(O)C(=O)[C@@H](C)C/C=C/[C@H]3[C@@H]1O` [cytochalasin D], in the test with N2a cells, the “cell surface association of rPrP^C-546” value is “did not block” and the “cellular uptake of rPrP^C-546” value is recorded as “prevented the cellular uptake”.

Take heparin: the “surface binding of rPrP^C-Alexa546” value in the test with N2a cells is given as “prevented”. Further, in the test with cells, the “PrP^C infection of cells” value was “can prevent”. Also, the “uptake of rPrP^C(23-90)-Cre into cells and subsequent DNA recombination (GFP-positive cells)” value in test [1] is “inhibited protein uptake into cells and subsequent DNA recombination in a dose-dependent manner”.

Regarding chondroitin sulfate B, in test [1], the “uptake of rPrP^C(23-90)-Cre into cells and subsequent DNA recombination (GFP-positive cells)” value was “inhibited protein uptake into cells and subsequent DNA recombination in a dose-dependent manner”.
